Publication PMC8205030, “Methoxy and bromo scans on N-(5-methoxyphenyl) methoxybenzenesulphonamides reveal potent cytotoxic compounds, especially against the human breast adenocarcinoma MCF7 cell line” (Journal of Enzyme Inhibition and Medicinal Chemistry, 2021)
In brackets after ≈: the same amount, converted by molar mass. Like-named read-outs stand apart in the source and are kept apart here.

Key:
[1] = test system: HT-29 (human colon carcinoma) cells; assay: Cell growth assay (XTT), HT-29, alone or with verapamil; type: cell-based
Procedure: The presence of mycoplasma was routinely checked with MycoAlert kit (Lonza-Cambrex) and only mycoplasma-free cells were used in the experiments. Tumour cell lines were kindly provided by Dr Faustino Mollinedo from Centro de Investigaciones Biológicas Margarita Salas, Madrid, Spain. To determine cell growth, cells in exponential growth phase were seeded (100 µL/well in 96-well plates) with appropriate cell concentration (1.5 × 10^4 cells/mL for MCF7, HeLa and HEK-293 and 3 × 10^4 cells/mL for HT-29) in complete DMEM or RPMI 1640 medium (see above) at 37 °C and 5% CO2 atmosphere. After 24 h incubation, to allow cells to attach to the plates, all compounds were added at 1 µM concentration (10 µL/well in 96-well plates) and the effect on the proliferation was evaluated 72 h post-treatment. […] Nonlinear curves fitting the experimental data were carried out for each compound. […] A freshly prepared mixture solution of XTT labelling reagent with 0.02% (v/v) PMS (N-methyl-dibenzopyrazine methyl sulfate) electron coupling reagent was added to cells (50 µL/well in 96-well plates, the total volume of 160 µL/well) and were incubated during the corresponding time according to each cell line (4 h for MCF7 and HeLa and 6 h for HT-29 and HEK-293) in a humidified atmosphere (37 °C, 5% CO2). The absorbance of the formazan product generated was measured at a test wavelength of 450 nm using a multi-well plate reader (Ultra Evolution, Tecan, Männedorf, Suiza). Compounds were dissolved in DMSO and the final solvent concentrations never exceeded 0.5% (v/v). The control wells included treated cells with 0.5% (v/v) DMSO and the positive control. 10 µM verapamil was included as a control for the HT-29 cell line. Measurements were performed in triplicate, and each experiment was repeated three times.

[2] = test system: HeLa (human cervical carcinoma) cells; assay: Cell growth assay (XTT), HeLa; type: cell-based; conditions: 72 h drug exposure, read-out: Antiproliferative activity IC50 HeLa
Procedure: (§1) The presence of mycoplasma was routinely checked with MycoAlert kit (Lonza-Cambrex) and only mycoplasma-free cells were used in the experiments. Tumour cell lines were kindly provided by Dr Faustino Mollinedo from Centro de Investigaciones Biológicas Margarita Salas, Madrid, Spain. To determine cell growth, cells in exponential growth phase were seeded (100 µL/well in 96-well plates) with appropriate cell concentration (1.5 × 10^4 cells/mL for MCF7, HeLa and HEK-293 and 3 × 10^4 cells/mL for HT-29) in complete DMEM or RPMI 1640 medium (see above) at 37 °C and 5% CO2 atmosphere. After 24 h incubation, to allow cells to attach to the plates, all compounds were added at 1 µM concentration (10 µL/well in 96-well plates) and the effect on the proliferation was evaluated 72 h post-treatment. Compounds showing antiproliferative effects at tested concentration were selected for IC50 calculation (50% inhibitory concentration compared to the untreated controls) from 10^−5 to 10^−10 M concentration. Nonlinear curves fitting the experimental data were carried out for each compound. […] A freshly prepared mixture solution of XTT labelling reagent with 0.02% (v/v) PMS (N-methyl-dibenzopyrazine methyl sulfate) electron coupling reagent was added to cells (50 µL/well in 96-well plates, the total volume of 160 µL/well) and were incubated during the corresponding time according to each cell line (4 h for MCF7 and HeLa and 6 h for HT-29 and HEK-293) in a humidified atmosphere (37 °C, 5% CO2). The absorbance of the formazan product generated was measured at a test wavelength of 450 nm using a multi-well plate reader (Ultra Evolution, Tecan, Männedorf, Suiza). Compounds were dissolved in DMSO and the final solvent concentrations never exceeded 0.5% (v/v). The control wells included treated cells with 0.5% (v/v) DMSO and the positive control. 10 µM verapamil was included as a control for the HT-29 cell line. Measurements were performed in triplicate, and each experiment was repeated three times.

[3] = test system: MCF7 (human breast carcinoma) cells; assay: Cell growth assay (XTT), MCF7; type: cell-based; conditions: for IC50: Homo sapiens, MCF7, 72 h drug exposure, XTT, read-out: Antiproliferative activity IC50 MCF7; for Fold more potent against MCF7 than against HeLa: ratio of IC50 values
Procedure: as §1

[4] = molecular target: T1, microtubular protein isolated from calf brain (Bos taurus, UniProt P81947+Q6B856); assay: Inhibition of tubulin polymerisation (turbidity); type: biochemical; conditions: for TPI % 10 µM: 10 µM compound, 1.5 mg/mL microtubular protein; for IC50: in vitro tubulin polymerisation inhibition, read-out: TPI IC50
T1 construct: isolated from calf brain according to the modified Shelanski method; from tissue; host or cells: calf brain
T1 sequence (Q6B856 whole entry): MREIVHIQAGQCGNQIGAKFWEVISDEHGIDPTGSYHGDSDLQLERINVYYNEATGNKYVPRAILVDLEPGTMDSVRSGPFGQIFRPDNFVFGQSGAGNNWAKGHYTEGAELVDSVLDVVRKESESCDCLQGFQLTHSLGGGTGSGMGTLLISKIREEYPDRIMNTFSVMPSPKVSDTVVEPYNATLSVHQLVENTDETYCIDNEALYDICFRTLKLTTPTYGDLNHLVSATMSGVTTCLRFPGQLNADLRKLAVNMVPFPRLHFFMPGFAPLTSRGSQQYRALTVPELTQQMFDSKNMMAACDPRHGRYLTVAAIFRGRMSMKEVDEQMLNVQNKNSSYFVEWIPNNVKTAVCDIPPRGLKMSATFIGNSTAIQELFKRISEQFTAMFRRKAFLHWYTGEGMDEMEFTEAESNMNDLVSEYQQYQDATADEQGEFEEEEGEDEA
T1 sequence (P81947 whole entry): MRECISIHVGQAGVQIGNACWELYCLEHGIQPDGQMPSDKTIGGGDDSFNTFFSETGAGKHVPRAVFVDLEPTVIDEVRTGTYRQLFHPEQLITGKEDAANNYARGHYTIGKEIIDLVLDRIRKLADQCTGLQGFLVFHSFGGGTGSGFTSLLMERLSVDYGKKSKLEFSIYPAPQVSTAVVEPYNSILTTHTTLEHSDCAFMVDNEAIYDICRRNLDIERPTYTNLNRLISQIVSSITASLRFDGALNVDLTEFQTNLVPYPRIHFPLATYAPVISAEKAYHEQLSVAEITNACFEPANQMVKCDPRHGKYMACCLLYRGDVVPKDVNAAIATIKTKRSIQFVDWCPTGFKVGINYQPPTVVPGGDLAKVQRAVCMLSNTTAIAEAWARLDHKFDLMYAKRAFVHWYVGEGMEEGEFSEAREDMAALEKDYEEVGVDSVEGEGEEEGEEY
Procedure: Microtubular protein was isolated from calf brain according to the modified Shelanski method[23]^,[24] by two cycles of temperature-dependent assembly/disassembly and stored at −80 °C. Before each use, protein concentration is determined by Bradford method[25] taking BSA as standard. Tubulin polymerisation was monitored using a Helios α spectrophotometer by measuring the increase in turbidity at 450 nm, caused by a shift from 4 °C to 37 °C, which allows the in vitro microtubular protein to depolymerise and to polymerise, respectively. The assay was carried out in quartz cuvettes containing 1.5 mg/mL microtubular protein and the ligand (except for control cuvette with only DMSO at the same concentration) in a mixture of 0.1 M MES buffer, 1 mM EGTA, 1 mM MgCl2, 1 mM β-ME, and 1.5 mM GTP at pH 6.7 (final volume 500 µL). Cuvettes were preincubated at 20 °C for 30 min, to allow ligand binding to tubulin, and subsequently cooled on ice for 10 min. Then, the experiment starts at 4 °C to establish the initial baseline. The assembly process was initiated by a temperature shift to 37 °C and the turbidity produced by tubulin polymerisation can be measured by an absorbance increase. After reaching a stable plateau, the temperature was switched back to 4 °C to return to the initial absorption values (to confirm the reversible nature of the monitored process and to determine whether or not the microtubular protein has stabilized). The difference in amplitude between the stable plateau and the initial baseline of the curves was taken as the degree of tubulin polymerisation for each experiment. […] All compounds were tested at 10 µM concentration. IC50 values were calculated for compounds that inhibit tubulin polymerisation more than 50% at 10 µM. […] All the measurements were carried out in at least two independent experiments using microtubular protein from different preparations.

[5] = Aqueous solubility (saturation shake-flask, UV); type: physicochemical; conditions: aqueous buffer, thermodynamic from solid, pH 7.0 phosphate buffer, room temperature
Procedure: The aqueous solubility was determined in a Helios-α UV-320 Spectrophotometer Thermo-Spectronic, Thermo Fischer Scientific, Waltham, MA, USA) using an approach based on the saturation shake-flask method. 1–2 mg of each selected compound was suspended in 300 µL pH 7.0 buffer and stirred for 48 h at room temperature. The resulting mixture was filtered through a […] filter to discard the insoluble residues. A scan between 270 and 400 nm for the tested compound was performed and three wavelengths of maximum absorbance were selected. Calibration curves were performed at these wavelengths and the concentration in the supernatant was measured by UV absorbance. The final value was given as the average of the three measurements.

[6] = test system: HEK293 (human embryonic kidney) cells; assay: Cell growth assay (XTT), non-tumorigenic HEK293; type: cell-based; conditions: for IC50: Homo sapiens, HEK293, non-tumorigenic cell line, 72 h, XTT, read-out: Antiproliferative activity IC50 HEK293
Procedure: as §1

[7] = 72 h, in the presence of Pgp/MDR1 inhibitor verapamil (10 µM), read-out: Antiproliferative activity IC50 HT-29 Verap
[8] = Homo sapiens, HT-29, 72 h drug exposure, XTT, read-out: Antiproliferative activity IC50 HT-29

Row | SMILES | IC50 [1, 7] [nM] | IC50 [1, 8] [nM] | IC50 [2] [nM] | IC50 [3] [nM] | TPI % 10 µM [4] [%] | IC50 [4] [nM] | melting point [°C] | solubility at 48 h [5] [µg/mL] | Selectivity index HEK293 vs HeLa and MCF7 tumour cells [6] | IC50 [6] [nM] | Fold more potent against MCF7 than against HeLa [3]
1 | COc1ccc(S(=O)(=O)N(CC#N)c2cc(OC)c(OC)cc2Br)cc1 [Compound 16, N-(2-bromo-4,5-dimethoxyphenyl)-N-(cyanomethyl)-4-methoxybenzenesulphonamide] | 750 | 360 | 407 | 575 | 16 | > 10000 | 76 to 84 | 13 (≈ 29.5 µM) | – | – | –
2 | COc1ccc(S(=O)(=O)N(C)c2cc(OC)ccc2OC)cc1 [Compound 22, N-(2,5-dimethoxyphenyl)-4-methoxy-N-methylbenzenesulphonamide] | 305 | 250 | 177 | 153 | 4 | > 10000 | 105 to 110 | 25 (≈ 74.1 µM) | 3- to 5 fold | 517 | –
3 | COc1ccc(S(=O)(=O)Nc2cc(OC)c(OC)cc2OC)cc1 [Compound 32, 4-Methoxy-N-(2,4,5-trimethoxyphenyl)benzenesulphonamide] | 553 | 360 | 410 | 580 | 3 | > 10000 | 112 to 114 | 213 (≈ 603 µM) | – | – | –
4 | COc1ccc(S(=O)(=O)N(C)c2cc(OC)c(OC)cc2OC)cc1 [Compound 33, 4-Methoxy-N-methyl-N-(2,4,5-trimethoxyphenyl)benzenesulphonamide] | 577 | 500 | 413 | 99 | 0 | > 10000 | 137 to 143 | 157 (≈ 427 µM) | – | – | 4–7 fold
5 | COc1ccc(S(=O)(=O)N(CC#N)c2cc(OC)c(OC)cc2OC)cc1 [Compound 35, N-(cyanomethyl)-4-methoxy-N-(2,4,5-trimethoxyphenyl)benzenesulphonamide] | 415 | 365 | 500 | 67 | 5 | > 10000 | 173 to 180 | 15 (≈ 38.2 µM) | – | – | 4–7 fold

Stronger by IC50 [1, 8], values ahead:

Row | IC50 [1, 7] [nM] | IC50 [1, 8] [nM] | IC50 [2] [nM] | IC50 [3] [nM] | TPI % 10 µM [4] [%] | IC50 [4] [nM] | melting point [°C] | solubility at 48 h [5] [µg/mL] | SMILES | Selectivity index HEK293 vs HeLa and MCF7 tumour cells [6] | IC50 [6] [nM] | Fold more potent against MCF7 than against HeLa [3]
6 | – | 187 | 227 | 350 | 0 | > 10000 | 114 to 115 | 13 (≈ 40.2 µM) | COc1ccc(S(=O)(=O)Nc2cc(OC)ccc2OC)cc1 [Compound 21, N-(2,5-dimethoxyphenyl)-4-methoxybenzenesulphonamide] | – | – | –
7 | 30 | 72 | 45 | 25 | 65 | 6900 | 118 to 119 | 9 (≈ 22.4 µM) | COc1ccc(S(=O)(=O)Nc2cc(OC)c(Br)cc2OC)cc1 [Compound 23, N-(4-bromo-2,5-dimethoxyphenyl)-4-methoxybenzenesulphonamide] | 0.5 to 2 fold | 43 | –
8 | 160 | 123 | 33 | 19 | 59 | 7600 | 132 to 133 | 1 (≈ 2.4 µM) | COc1ccc(S(=O)(=O)N(C)c2cc(OC)c(Br)cc2OC)cc1 [Compound 24, N-(4-bromo-2,5-dimethoxyphenyl)-4-methoxy-N-methylbenzenesulphonamide] | 3- to 5 fold | 91 | –
